Assay results: patent US8299040B2, “Methods for treating cancer targeting transglutaminase” (Board of Regents, The University of Texas System, priority 2006, dated 2012)

Assays:
PKCδ = biological target: T1, PKCδ (Homo sapiens, UniProt Q05655); experiment: PKCδ protein expression in MDA-Panc28 cells (western blot); assay type: cell-based; conditions: 48 h
T1 construct: endogenous in cells; host or cells: MDA-Panc28
Procedure: (A) Cells at 80% confluence were treated with 1 μM, 2 μM or 4 μM rottlerin. After 48 h of treatment, the cells were lysed and cell lysates were fractionated by sodium dodecyl sulfate polyacrylamide gel electrophoresis (SDS-PAGE) and transferred onto nitrocellulose membrane to determine PKCδ and TG2 protein expression by western blot analysis. […] Experiments were repeated at least three times.
After treatment, the cells were collected and centrifuged, and whole-cell lysates were obtained using a lysis buffer. Total protein concentration was determined using a DC protein assay kit (Bio-Rad, Hercules, Calif., USA). […] Aliquots containing 30 μg of total protein from each sample were subjected to sodium dodecyl sulfate-polyacrylamide gel electrophoresis (SDS-PAGE) with a 4-20% gradient and electrotransferred to nitrocellulose membranes. The membranes were blocked with 5% dry milk in tris-buffered saline-tween 20 (TBST), probed with primary antibodies diluted in TBST containing 2.5% dry milk and incubated at 4° C. overnight. […] Mouse anti-β-actin and donkey anti-mouse secondary antibody were purchased from Sigma Chemical (St. Louis, Mo., USA) so that β-actin expression could be monitored to ensure equal loading of proteins. […] The blots were visualized with a Fluor Chem 8900 imager and quantified by a densitometer using the Alpha Imager application program (Alpha Innotech). […]

TG2 [1] = experiment: TG2 protein expression in MDA-Panc28 cells (western blot); assay type: cell-based, human; conditions: 48 h
Procedure: (A) Cells at 80% confluence were treated with 1 μM, 2 μM or 4 μM rottlerin. After 48 h of treatment, the cells were lysed and cell lysates were fractionated by sodium dodecyl sulfate polyacrylamide gel electrophoresis (SDS-PAGE) and transferred onto nitrocellulose membrane to determine PKCδ and TG2 protein expression by western blot analysis. The membrane was stripped and reprobed with an anti-β-actin antibody to confirm equal loading of protein in each lane. (B) Total RNA was extracted, and transcript levels of TG2 and β-actin were determined by RT-PCR analysis as described in Materials and Methods. Relative expression levels were determined by densitometry as compared with β-actin. Experiments were repeated at least three times.
(§1) After treatment, the cells were collected and centrifuged, and whole-cell lysates were obtained using a lysis buffer. Total protein concentration was determined using a DC protein assay kit (Bio-Rad, Hercules, Calif., USA). […] Mouse anti-β-actin and donkey anti-mouse secondary antibody were purchased from Sigma Chemical (St. Louis, Mo., USA) so that β-actin expression could be monitored to ensure equal loading of proteins. […] The blots were visualized with a Fluor Chem 8900 imager and quantified by a densitometer using the Alpha Imager application program (Alpha Innotech). […]

[2] = tested on: Bx-PC3, MIAPaCa, MDA-Panc28, Panc1 and Capan-2 cells; experiment: Growth inhibition in pancreatic cancer cell lines; assay type: cell-based, human
Procedure: (A) Different pancreatic cancer cell lines were treated with rottlerin (4 μM) for 48 h, and viable cells were detected by proliferation assay using Alamar Blue staining. Bars represent growth inhibition after normalizing untreated cells to 100%. (B) Growth of the indicated cell lines after treatment with rottlerin (4 μM) for 48 and 96 h.
(§2) Pancreatic cell lines MDA-Panc28, Capan-2, Bx-PC3, Panc1 and MIAPaCa were provided by Dr. Shrikant Reddy (M. D. Anderson Cancer Center). MDA-Panc28 and Bx-PC3 cell lines were maintained in RPMI-1640 medium supplemented with 10% fetal calf serum. Panc1 and MIAPaCa cell lines and Capan-2 cells were maintained in DMEM and McCoy's 5A, respectively. All media were supplemented with 10% fetal calf serum. For the cell proliferation experiments, cells were seeded at a density of 1-2×10^5 cells in T-25 tissue culture flasks. Twenty-four hours after the seeding, cells were treated with various concentrations of rottlerin for the indicated periods of time. Adherent cells were collected by trypsinization, and cell numbers were determined using a Neubauer cell counting chamber. All experiments were replicated at least two times.

MDA-Panc28 cells [3] = experiment: Growth inhibition in MDA-Panc28 cells; assay type: cell-based; conditions: Homo sapiens, MDA-Panc-28; 4 μM for 48 h; read-out: inhibition in cell growth
Procedure: as §2

MDA-Panc28 cells [4] = experiment: Apoptosis in MDA-Panc28 cells (sub-G1 FACS, PARP cleavage); assay type: cell-based, human
Procedure: PARP cleavage positive cell lysate was used as a positive control. (C) Morphological changes after treatment with rottlerin. Microphotographs were taken using a phase-contrast microscope (300× magnification). Left panel, untreated cells at 48 h of treatment; center panel, cells treated for 48 h, and right panel, cells treated for 96 h.

MCF-7 cells = experiment: LC3-II accumulation in TG2-negative MCF-7 cells; assay type: cell-based, human; conditions: MCF-7 (TG2-negative), optimal conditions
Procedure: (§3) (A) A panel of pancreatic cancer cell lines including MDA-Panc28, Capan-2, Bx-PC3, Panc1 and MIAPaCa cells were treated with Rottlerin (4 μM) for 48 h for the detection of LC3-II and TG2 expression by western blot. (B) MCF-7 cell line was also tested for LC3-II and TG2 expression by western blot. (C) Expression of TG2 in MDA-Panc28 cells was determined upon exposure to different treatments (D) Detection of autophagolysosomes; MDA-Panc28 cells were treated with either control siRNA, Rottlerin or TG2 siRNA for 48 h. Photomicrographs show morphological changes of the cells by phase contrast microscopy (left panels); acridine orange staining of the acidic vesicular organelles by fluorescent microscopy (center panels) and the localization LC3-II at autophagosomes in cells after transfection with GFP-LC3 plasmid (right panels). […]
as §1

Beclin 1 = Beclin 1 expression in MDA-Panc28 cells; assay type: cell-based, human; conditions: MDA-Panc28, data not shown
TG2 [5] = experiment: TG2 expression in pancreatic cancer cell lines (western blot); assay type: cell-based, human; conditions: 4 μM for 48 h, all pancreatic cancer cell lines tested
Procedure: as §3, §1

T1 sequence (Q05655 whole entry): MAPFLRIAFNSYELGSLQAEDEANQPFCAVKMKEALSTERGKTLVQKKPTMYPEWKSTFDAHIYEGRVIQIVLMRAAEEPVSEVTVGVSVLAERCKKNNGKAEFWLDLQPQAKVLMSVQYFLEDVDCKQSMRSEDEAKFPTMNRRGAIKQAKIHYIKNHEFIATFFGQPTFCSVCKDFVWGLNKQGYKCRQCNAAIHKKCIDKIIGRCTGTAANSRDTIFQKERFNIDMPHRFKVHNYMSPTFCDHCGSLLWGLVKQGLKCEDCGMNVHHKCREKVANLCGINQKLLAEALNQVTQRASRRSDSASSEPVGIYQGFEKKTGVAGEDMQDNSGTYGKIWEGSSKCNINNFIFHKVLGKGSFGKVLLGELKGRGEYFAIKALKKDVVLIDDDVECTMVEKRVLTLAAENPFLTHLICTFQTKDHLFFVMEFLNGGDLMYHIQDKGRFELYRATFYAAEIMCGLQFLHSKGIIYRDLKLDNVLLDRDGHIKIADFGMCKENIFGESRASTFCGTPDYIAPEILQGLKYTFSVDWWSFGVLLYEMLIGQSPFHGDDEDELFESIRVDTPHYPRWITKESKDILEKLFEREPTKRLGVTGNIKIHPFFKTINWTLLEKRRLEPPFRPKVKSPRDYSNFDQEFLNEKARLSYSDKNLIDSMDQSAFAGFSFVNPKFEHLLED

CC(=O)c1c(O)c(C)c(O)c(Cc2c(O)c3c(c(C(=O)/C=C/c4ccccc4)c2O)OC(C)(C)C=C3)c1O [rottlerin]
inhibition of PKCδ protein expression (PKCδ; 2 μM): 72%
inhibition of PKCδ protein expression (PKCδ; 4 μM): 94%
inhibition of TG2 protein expression (TG2 [1]; 1 μM): 44%
inhibition of TG2 protein expression (maximum) (TG2 [1]; 4 μM): 94%
growth inhibition ([2]; 4 μM for 48 h, five cell lines): induced growth inhibition in all five cell lines tested
time course of growth inhibition ([2]; 4 μM, 48 and 96 h, MDA-Panc28, Bx-PC3, MIAPaCa): time-dependent inhibition in cell growth of all three
inhibition at 4 µM (MDA-Panc28 cells [3]): 49%
apoptosis (accumulation in sub-G1 phase) (MDA-Panc28 cells [4]; 4 μM for 48 h, FACS): failed to promote any apoptosis
PARP cleavage (MDA-Panc28 cells [4]; Western blot): failed to show any poly ADP-ribose polymerase (PARP) cleavage
LC3-II accumulation (MCF-7 cells): failed to produce any increase in LC3-II accumulation
Beclin 1 expression (Beclin 1): Expression levels did not change
TG2 expression (TG2 [5]): parallel decrease in TG2 expression
